From US9408859B2, “Pharmaceutical compositions useful for preventing and treating cancer” (Mitotech SA, priority 2007, dated 2016)
Peptide text beside a SMILES is read from it. * marks the point of attachment. Cbz = O=C(OCc1ccccc1)*; CH2F = FC*

How the values were obtained:
[1] = system: human rhabdomyosarcoma cell line (RD); assay: RD cell morphology, attachment and multinuclear cells; assay type: cell-based; settings: 20 nM, pretreatment for 24 hours
Description: In the following experiment, a human rhabdomyosarcoma cell line (RD) purchased from the ATCC (#CCL-136) was used. These cells were isolated from a […] 7 years ago and are widely accepted as a model for studies of rhabdomyosarcoma in vitro and in vivo.
The cells were grown in Dulbecco's modified Eagle's medium (DMEM, Gibco®, Invitrogen, Carlsbad, Calif.) supplemented with 10% FBS. The cells were treated with 20 nM SkQ (SkQ1, SkQR1, SkQB1, or SkQBP1), or with a non-targeted antioxidant (1 mM NAC, or 100 μM Trolox) 24 to 72 hours before evaluation. In some experiments 1 μM of the protonophorous uncoupler FCCP was added 1 hour before the addition of SkQ1 to depolarize the mitochondrial membrane, and thus to prevent the electrophoretic accumulation of SkQ in the mitochondrial interior. The cells were then stained with rabbit polyclonal antibodies against actin (1:1000) (Sigma-Aldrich Corp., Baleras, Russia) and monoclonal antibody DM1A against tubulin (1:1000) (Sigma-Aldrich Corp.), and their morphology examined using an Axiovert fluorescent microscope equipped with objectives 20× (dry) and 100× (oil immersion Neofluar) (Carl Zeiss, Germany).

[2] = system: tumor xenografts (tumors of epithelial cancers); settings: as stated in WO2006005759, cited from earlier work
[3] = system: human rhabdomyosarcoma cell line (RD); assay: Apoptosis in RD cells (Hoechst staining, propidium iodide flow cytometry); assay type: cell-based; settings: for Induction of apoptosis: 1 mM NAC or 100 mM Trolox for 24 hours
Description: To determine the viability of the cells, chromatine condensation and fragmentation was analyzed in similarly-treated cells (20 nM SkQ or 1 mM NAC or 100 mM Trolox for 24 hours and 1 μm FCCP one hour before SkQ1 where indicated) after staining with Hoechst 3342 (GenScript, Cat. No. L00309, performed according to manufacture manual http://www.genscript.com/tech_guide/TM0361.pdf). The cells were then examined using an Axiovert fluorescent microscope equipped with objectives 20× (dry) and 100× (oil immersion Neofluar) (Carl Zeiss).
Further evidence of apoptosis was obtained by analysis of DNA content in the cellular population using flow cytometry. Cells were incubated with 0.05% ethanol was added (control) or with 20 nM SkQ1 for 24 hours, and then fixed and stained with propidium iodide (5 μM). They were then analyzed by flow cytometry using a FC-500 FACS (Beckman Coulter, Inc., Brea, Calif.).

Lung Lewis's carcinoma = assay: SkQ1 combined with doxorubicin on growth of lung Lewis's carcinoma; assay type: in vivo, mouse; settings: regime per group
Description: For development of oncological diseases joint therapy that combines SkQ1 and chemotherapy, a study on SkQ1 influence on single doxorubicin injection efficiency was performed (one of the mechanisms of the preparation is activation of oxidative processes in normal and cancerous cells). SkQ1 was introduced before, simultaneously, or after introduction of doxorubicin in maximum dose of 500 nM/kg (in order to block oxidative mechanism of doxorubicin influence).
Doxorubicin was applied before, after, and during the course of SkQ1.

COc1cc2c(cc1OC)-c1c(CC(=O)OCCCCCCCC3=CC(=O)C(C)=C(C)C3=O)c3ccc(OC)c(OC)c3c[n+]1CC2 [SkQBP1]
Cell morphology [1]: induced the formation of elongated cells

COC1=C(OC)C(=O)C(CCCCCCCCCC[P+](c2ccccc2)(c2ccccc2)c2ccccc2)=C(C)C1=O [MitoQ]
necrosis [2]: increased necrosis
vascularization of the tumor xenografts [2]: decreased vascularization
tumor size ([2]; no experimental data shown): tumor size reduction

COc1ccc2c(CC(=O)OCCCCCCCC3=CC(=O)C(C)=C(C)C3=O)c3[n+](cc2c1OC)CCc1cc2c(cc1-3)OCO2 [SkQB1]
Cell morphology [1]: induced the formation of elongated cells

N#CC(C#N)=NNc1ccc(OC(F)(F)F)cc1 [FCCP]
Effect on pro-apoptotic action of SkQs ([3]; 1 μm FCCP one hour before SkQ1): prevented their pro-apoptotic action

COc1cccc2c1C(=O)c1c(O)c3c(c(O)c1C2=O)C[C@@](O)(C(=O)CO)C[C@@H]3O[C@H]1C[C@H](N)[C@H](O)[C@H](C)O1 [DOX, doxorubicin, reference compound]
TGS %, by tumor volume (Lung Lewis's carcinoma; Day 10): 26%
TGS %, by tumor volume (Lung Lewis's carcinoma; Day 14): 38%
TGS %, by tumor volume (Lung Lewis's carcinoma; Day 14, listed as doxorubicin): 36%
TGS %, by tumor volume (Lung Lewis's carcinoma; Day 17): 35%
TGS %, by tumor volume (Lung Lewis's carcinoma; Day 21): 30%

COC(=O)C[C@H](NC(=O)[C@H](C)NC(=O)[C@@H](NC(=O)OCc1ccccc1)C(C)C)C(=O)CF [zVADfmk] (Cbz-Val-Ala-Asp(OMe)-CH2F)
Effect on cell death caused by SkQs ([3]; pan-caspase inhibitor): Cell death was prevented

CC(=O)N[C@@H](CS)C(=O)O [NAC]
Induction of apoptosis [3]: induced apoptosis in RD cells but only at much higher concentrations

Cc1c(C)c2c(c(C)c1O)CCC(C)(C(=O)O)O2 (centres unmarked) [Trolox]
Induction of apoptosis [3]: induced apoptosis in RD cells but only at much higher concentrations
